Measurements published in US5861405A, “S-substituted 1,3,7-trialkyl-xanthine derivatives” (priority 1994, dated 1999).
Where “and” joins values, the source holds several entries; their conditions need not be identical. Equal entries are not always repeated. Where two headings read alike, the source gives them in different places.

Assays:
[1] = molecular target: rat striatal A2a receptors (Rattus norvegicus, UniProt P30543); experiment: Radioligand binding, [3H]CGS 21680, rat striatal A2a receptors; parameters: Rat cerebral cortical membranes and striatal membranes were prepared; from tissue; host or cells: rat striatal membranes; conditions: for A1/A2a ratio: ratio of Ki values; for potency or selectivity in binding, in words: rat A1 and A2 binding; for A2-selectivity: rat brain binding, this study
Chain of rat striatal A2a receptors (P30543 whole entry): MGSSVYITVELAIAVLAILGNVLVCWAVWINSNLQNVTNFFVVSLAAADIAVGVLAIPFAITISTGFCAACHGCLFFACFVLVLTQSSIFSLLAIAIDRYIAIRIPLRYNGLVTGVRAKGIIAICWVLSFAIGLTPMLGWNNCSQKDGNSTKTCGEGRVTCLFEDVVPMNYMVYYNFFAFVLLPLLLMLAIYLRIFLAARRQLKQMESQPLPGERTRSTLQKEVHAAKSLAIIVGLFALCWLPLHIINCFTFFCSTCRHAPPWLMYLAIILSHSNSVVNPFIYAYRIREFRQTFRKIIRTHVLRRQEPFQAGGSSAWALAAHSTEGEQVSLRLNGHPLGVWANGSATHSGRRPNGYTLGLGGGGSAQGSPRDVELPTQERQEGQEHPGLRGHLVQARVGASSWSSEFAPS
Procedure: (§1) The 1,3,7-trialkyl-8-substituted xanthine compounds of the present invention were tested in a radioligand binding assay for affinity at adenosine receptors in rat brain membranes.
The stock solutions were diluted with DMSO to a concentration of ≥0.1 mM prior to adding to the aqueous medium. The final concentration of DMSO in the assay medium was generally 2%.
Test drugs were dissolved in DMSO and added in 10 μl aliquots, resulting in a final DMSO concentration of 2%. Non-specific binding was defined using 20 μM 2-chloroadenosine. Filtration was carried out using a Brandel Cell Harvester, as above, using Tris HCl/MgCl2 as the washing buffer.
(§2) At least six different concentrations spanning three orders of magnitude, adjusted appropriately for the IC50 of each compound, were used.

[2] = molecular target: T1, rat A1 cortical receptors (Rattus norvegicus, UniProt P25099); experiment: Radioligand binding, [3H]N6-phenylisopropyladenosine ([3H]PIA), rat cortical A1 receptors; conditions: for Ki: vs [3H]PIA (1 nM), read-out: Ki (A1)
T1 construct: Rat cerebral cortical membranes and striatal membranes were prepared; from tissue; host or cells: rat cerebral cortex membranes
T1 sequence (P25099 1-326): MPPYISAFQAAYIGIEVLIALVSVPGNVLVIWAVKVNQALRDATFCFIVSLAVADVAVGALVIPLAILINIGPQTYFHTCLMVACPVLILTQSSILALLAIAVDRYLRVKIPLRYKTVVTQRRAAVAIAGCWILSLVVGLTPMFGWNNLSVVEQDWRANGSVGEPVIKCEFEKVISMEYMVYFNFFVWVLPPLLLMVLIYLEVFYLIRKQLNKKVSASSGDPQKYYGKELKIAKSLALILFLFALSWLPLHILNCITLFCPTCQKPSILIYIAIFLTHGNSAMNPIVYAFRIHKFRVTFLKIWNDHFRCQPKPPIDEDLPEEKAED
Procedure: as §1
The final concentration of DMSO in the assay medium was generally 2%.
Membranes (~100 μg protein per tube) were incubated for 1.5 h at 37° C. in a total volume of 0.5 ml of 50 mM Tris hydrochloride, at pH 7.4. Test drugs were dissolved in DMSO and added in 10 μl aliquots, resulting in a final DMSO concentration of 2%. Bound and free radioligand were separated by addition of 3 ml of a buffer containing 50 mM Tris hydrochloride, pH 7.4, at 5° C., followed by vacuum filtration using a Brandel Cell Harvester (Brandel, Gaithersburg, Md.) and a Whatman GF/B glass fiber filter with additional washes totaling 9 ml of buffer. Non-specific binding was determined with 10 μM 2-chloroadenosine.
as §2

[3] = Table III, vs [3H]CGS21680 (5 nM), read-out: Ki (A2)
[4] = Table I, vs [3H]CGS21680 (5 nM), rat striatal A2 receptors, read-out: Ki (A2a)
[5] = vs [3H]CGS 21680, read-out: Ki value / affinity at A2 receptors

SMILES | A1/A2a ratio ([1]; Table I) | Ki [1, 4] | Ki ([2]; Table I, rat A1 receptors) | other results
Cn1c(=O)c2c(nc(/C=C/C(=O)Nc3ccccc3)n2C)n(C)c1=O [C(O)NH-phenyl(Rβ = H)] | – | – | – | A1/A2 ratio ([1]; Table III): 19.8; Ki [1, 3]: 2530 nM; Ki ([2]; Table III): 50000 nM
Cn1c(=O)c2c(nc(/C=C/C(=O)OC(C)(C)C)n2C)n(C)c1=O [C(O)OC(CH3)3 (Rβ = H), 8-(trans-2-tert-Butyloxycarbonylvinyl)-1,3,7-trimethylxanthine] | – | – | – | A1/A2 ratio ([1]; Table III): 31; Ki [1, 3]: 590 nM; Ki ([2]; Table III): 18000 nM
Cn1c(=O)c2c(nc(/C=C/C(=O)O)n2C)n(C)c1=O [C(O)OH(Rβ = H), 8-(trans-2-Carboxyvinyl)-1,3,7-trimethylxanthine] | – | – | – | A1/A2 ratio ([1]; Table III): > 3; Ki [1, 3]: 30000 nM; Ki ([2]; Table III): > 100000 nM
Cn1c(=O)c2[nH]c(/C=C/c3ccccc3)nc2n(C)c1=O [Compound 15a] | 2.3 | 291 ± 40 nM | 654 ± 170 nM | potency or selectivity in binding, in words [1]: non-selective
Cn1c(=O)c2c(nc(/C=C/c3ccccc3)n2C)n(C)c1=O [Compound 15b] | – | – | 3890 nM | –
Cn1c(=O)c2[nH]c(/C(F)=C/c3ccccc3)nc2n(C)c1=O [Compound 16] | 1.4 | 2110 nM | 2190 nM | –
COc1ccccc1/C=C/c1nc2c([nH]1)c(=O)n(C)c(=O)n2C [Compound 17a, 1,3-Dimethyl-8-(2-methoxystyryl)xanthine] | 2.7 | 645 ± 144 nM | 1730 nM | –
COc1ccccc1/C=C/c1nc2c(c(=O)n(C)c(=O)n2C)n1C [Compound 17b, 1,3,7-Trimethyl-8-(2-methoxystyryl)xanthine] | 18 | 267 ± 84 nM | 4760 nM | –
Cn1c(=O)c2[nH]c(/C=C/c3cccc(O)c3)nc2n(C)c1=O [Compound 18] | 2.4 | 303 ± 55 nM | 702 ± 40 nM | potency or selectivity in binding, in words [1]: equipotent with the methoxy compound, 19b, at A2 -receptors and more potent at A1 -receptors
COc1cccc(/C=C/c2nc3c([nH]2)c(=O)n(C)c(=O)n3C)c1 [Compound 19a] | 4.8 | 378 ± 155 nM | 1830 nM | –
COc1cccc(/C=C/c2nc3c(c(=O)n(C)c(=O)n3C)n2C)c1 [Compound 19b] | 64 | 84.8 ± 24 nM | 5430 nM | Ki [1, 5]: 85 nM
Cn1c(=O)c2[nH]c(/C=C/c3cccc(C(F)(F)F)c3)nc2n(C)c1=O [Compound 20a, 1,3-Dimethyl-8-(3-trifluoromethylstyryl)xanthine] | 2.6 | 343 ± 58 nM | 881 ± 251 nM | –
Cn1c(=O)c2c(nc(/C=C/c3cccc(C(F)(F)F)c3)n2C)n(C)c1=O [Compound 20b, 1,3,7-Trimethyl-8-(3-trifluoromethylstyryl)xanthine] | 25 | 134 ± 44 nM | 3330 nM | –
Cn1c(=O)c2[nH]c(/C=C/c3cccc([N+](=O)[O-])c3)nc2n(C)c1=O [Compound 21a, 1,3-Dimethyl-8-(3-nitrostyryl)xanthine] | 2.4 | 438 ± 106 nM | 1060 nM | –
Cn1c(=O)c2c(nc(/C=C/c3cccc([N+](=O)[O-])c3)n2C)n(C)c1=O [Compound 21b, 1,3,7-Trimethyl-8-(3-nitrostyryl)xanthine] | 11 | 195 ± 44 nM | 2140 nM | –
Cn1c(=O)c2[nH]c(/C=C/c3cccc(N)c3)nc2n(C)c1=O [Compound 22a, 1,3-Dimethyl-8-(3-aminostyryl)xanthine] | 1.4 | 202 ± 79 nM | 288 ± 60 nM | –
Cn1c(=O)c2c(nc(/C=C/c3cccc(N)c3)n2C)n(C)c1=O [Compound 22b, 1,3,7-Trimethyl-8-(3-aminostyryl)xanthine] | 30 | 57 ± 3 nM | 1690 nM | A2-selectivity [1]: 30 fold

SMILES | A1/A2a ratio ([1]; Table I) | Ki [1, 4] | Ki ([2]; Table I, rat A1 receptors) | other results
CC(=O)Nc1cccc(/C=C/c2nc3c(c(=O)n(C)c(=O)n3C)n2C)c1 [Compound 23, 1,3,7-Trimethyl-8-(3-acetylaminostyryl)xanthine] | 240 | 39 ± 21 nM | 9470 nM | Ki [1, 5]: 39 nM and ≤ 50 nM
Cn1c(=O)c2c(nc(/C=C/c3cccc(NC(=O)OC(C)(C)C)c3)n2C)n(C)c1=O [Compound 25, 1,3,7-Trimethyl-8-(3-tert-butyloxycarbonylaminostyryl)xanthine] | – | 784 ± 100 nM | – | –
Cn1c(=O)c2c(nc(/C=C/c3cccc(N(C(=O)OC(C)(C)C)C(=O)OC(C)(C)C)c3)n2C)n(C)c1=O [Compound 26, 1,3,7-Trimethyl-8-[3-[di-(tert-butyloxycarbonyl)amino]styryl]xanthine] | 15 | 740 ± 77 nM | 10800 nM | reduction of potency at A2-receptors ([1]; very bulky 3-position substituents): roughly 20 fold
Cn1c(=O)c2[nH]c(/C=C/c3cccc(F)c3)nc2n(C)c1=O [Compound 27a] | 5.3 | 516 ± 99 nM | 2720 nM | –
Cn1c(=O)c2c(nc(/C=C/c3cccc(F)c3)n2C)n(C)c1=O [Compound 27b] | 190 | 83 ± 18 nM | 15800 nM | A2-selectivity [1]: ≥ 200 fold
Cn1c(=O)c2c(nc(/C=C/c3cccc(Br)c3)n2C)n(C)c1=O [Compound 28b] | 120 | 29.2 ± 3.1 nM | 3520 nM | –
Cn1c(=O)c2c(nc(/C=C/c3cccc(I)c3)n2C)n(C)c1=O [Compound 28c] | 61 | 38.6 ± 12.5 nM | 2370 nM | –
Cn1c(=O)c2c(nc(/C=C/c3cccc([N+]#N)c3)n2C)n(C)c1=O [Compound 28d] | 46 | 64.8 ± 19.6 nM | 2990 nM | –
COc1ccc(/C=C/c2nc3c([nH]2)c(=O)n(C)c(=O)n3C)cc1 [Compound 29a, 1,3-Dimethyl-8-(4-methoxystyryl)xanthine] | 1.8 | 472 ± 132 nM | 858 ± 320 nM | –
COc1ccc(/C=C/c2nc3c(c(=O)n(C)c(=O)n3C)n2C)cc1 [Compound 29b, 1,3,7-Trimethyl-8-(4-methoxystyryl)xanthine] | 44 | 327 ± 75 nM | 14200 nM | –
CN(C)c1ccc(/C=C/c2nc3c([nH]2)c(=O)n(C)c(=O)n3C)cc1 [Compound 30a, 1,3-Dimethyl-8-(4-dimethylaminostyryl)xanthine] | 0.24 | 12800 nM | 3030 nM | –
CN(C)c1ccc(/C=C/c2nc3c(c(=O)n(C)c(=O)n3C)n2C)cc1 [Compound 30b] | > 1 | 9270 nM | – | potency or selectivity in binding, in words [1]: displayed A2 -selectivity; inhibition at 30 µM ([2]; 1.5 h, at 3 × 10^-5, vs [3H]PIA, read-out: Percent displacement of specific binding (A1)): 5.6%
COc1cccc(/C=C/c2nc3c([nH]2)c(=O)n(C)c(=O)n3C)c1OC [Compound 31a, 1,3-Dimethyl-8-(2,3-dimethoxystyryl)xanthine] | 2.7 | 600 ± 204 nM | 1600 nM | –
COc1cc(/C=C/c2nc3c(c(=O)n(C)c(=O)n3C)n2CCc2ccccc2)cc(OC)c1OC [Compound 44f] | – | – | – | inhibition at 10 µM ([2]; 1.5 h, at 10^-5, vs [3H]PIA, read-out: Percent displacement of specific binding (A1)): 32 ± 9%
CCn1c(=O)c2c(nc(/C=C/c3cc(OC)c(OC)c(OC)c3)n2C)n(CC)c1=O [Compound 45b] | – | – | 2790 nM | –
CCCn1c(=O)c2c(nc(/C=C/c3cccc(Cl)c3)n2C)n(CCC)c1=O [Compound 51b] | – | – | 874 ± 222 nM | –
COc1cccc2cc(-c3nc4c(c(=O)n(C)c(=O)n4C)n3C)oc12 [Compound 58b] | – | – | – | Ki ([1]; Table IV, vs [3H]CGS21680 (5 nM), read-out: Ki (A2)): 4740 nM
